Where “and” joins values, the source holds several entries; their conditions need not be identical. Equal values may be shown once.
Tested on: DSS-induced colitis
Test: DSS-induced colitis mouse model (experimental ulcerative colitis)
Format: in vivo
Set-up: Colon wet weight: unit not given here
Method: In this Example, mouse models to which dextran sulfate sodium salt (DSS) is used will be described as colitis models. When DSS is administered by being mixed in drinking water of the mouse, an experimental ulcerative colitis model similar to human ulcerative colitis in terms of symptoms such as suppression of body weight increase, blood in stools, and anemia and formation of colon erosion and further lacking intestinal lesion was build (Non-Patent Literature 3). A suppression effect of Compound X on colitis in such a model as the representative colitis model was examined. For the evaluation items, recovery from diarrhea and body weight loss by colitis, and the length and weight of the colon were examined as changes in colon properties, which are widely known to occur by DSS-induced colitis.
For treatment, C57BL/6J, male mice were purchased from CHARLES RIVER LABORATORIES JAPAN, INC. in accordance with previous literature (Non-Patent Literature 2) and 5-week old mice with no abnormal general conditions during quarantine and acclimation period were used for the experiment. After acclimation, the animals were divided in such a way as to be 1 mouse per cage. DSS used in the experiment having a molecular weight of from 36,000 to 50,000 Da was purchased from MP Bio Japan. DSS was added to tap water in such a way as to be 3% and suspended for causing colitis. The suspension was prepared once every 3 days and freely provided to each of the mice as water supply. A solution from which DSS was removed was provided as water supply to a non-pathological control group.
After group division, each of the test substances of Table 1 was suspended in a solution of 0.5% sodium carboxymethyl cellulose (hereinafter, CMC, Nacalai Tesque Inc.) in such a way as to be each treatment of Table 1 and orally administered once daily. […] These control groups, Groups 1 and 2, were orally administered, as the test substance, with the 0.5% CMC solution used as the medium.
Drinking water after the group division was typical water for drinking.
The test started with 6 mice in Group No. 1 and 10 mice each in Group Nos. 2 to 6.
Body weights were measured on the DSS administration starting day (day −5), DSS administration last day (day 0), on day 3, day 5, day 8, and day 10 of test substance administration.
The therapeutic effect was evaluated by observing changes in blood in stools caused by enteritis as the body weight recovery alone can be considered that the body weight increase might have been promoted simply by the growth. Mice feces were observed on the DSS administration starting day (day-5), DSS administration last day (day 0), on day 3, day 5, day 8, and day 10 of test substance administration and scored in accordance with the criteria of Table 2.
For evaluating the therapeutic effect of Compound X, the length and weight of the colon were measured. The mice were euthanized under anesthesia on day 10 of test substance administration and dissected to remove the colon. The removed colon was quickly measured for a length in a relaxed state. Subsequently, feces in the intestinal tract were removed and sufficiently washed with phosphate buffered saline (Wako Pure Chemical Industries, Ltd.) and measured for a wet weight.

[1] = DSS + 1 mg/kg/day oral, day 10, mean ± SD
[2] = DSS + 10 mg/kg/day oral, day 10, mean ± SD
[3] = DSS + 100 mg/kg/day oral, day 10, mean ± SD

Compound: CC1=C(/C=C/C(C)=C/C=C/C(C)=C/C=C/C=C(C)/C=C/C=C(C)/C=C/C2=C(C)C(=O)[C@@H](OC(=O)CNC(=O)NCCCC(=O)O)CC2(C)C)C(C)(C)C[C@H](OC(=O)CNC(=O)NCCCC(=O)O)C1=O.NCCCC[C@H](N)C(=O)O.NCCCC[C@H](N)C(=O)O [Compound X, 4-(3-{4-[18-(4(S)-[3-(3-Carboxypropyl)ureidoacetoxy]-2,6,6-trimethyl-3-oxocyclohexa-1-enyl)-3,7,12,16-tetramethyloctadeca-1(E),3(E),5(E),7(E),9(E),11(E),13(E),15(E),17(E)-nonaenyl]-3,5,5-trimethyl-2-oxocyclohex-3-enyl-1(S)-oxycarbonylmethyl}ureido)butyric acid dilysine salt]
- Blood feces score versus DSS administration group (100 mg/kg/day oral, day 5 of test substance administration, in words): improved blood feces score
- Body weight recovery compared with the DSS administration only (100 mg/kg/day oral, in words): body weight recovery was even further significant
- Body weight (DSS + 1 mg/kg/day oral, day 0 (DSS last day), mean ± SD): 20.3 ± 0.8 g
- Fecal scoring average value (DSS + 1 mg/kg/day oral, day 0 (DSS last day), score 0-3, mean ± SD): 1.2 ± 0.4
- Fecal scoring average value (DSS + 1 mg/kg/day oral, day 3, score 0-3, mean ± SD): 1.7 ± 0.8
- Body weight (DSS + 1 mg/kg/day oral, day 3 of administration, mean ± SD): 14.7 ± 1.3 g
- Body weight (DSS + 1 mg/kg/day oral, day 5, mean ± SD): 15.1 ± 1.5 g
- Fecal scoring average value (DSS + 1 mg/kg/day oral, day 5, score 0-3, mean ± SD): 1.7 ± 0.6
- Body weight (DSS + 1 mg/kg/day oral, day 8, mean ± SD): 18.0 ± 2.4 g
- Fecal scoring average value (DSS + 1 mg/kg/day oral, day 8, score 0-3, mean ± SD): 0.0 ± 0.0
- Body weight [1]: 19.4 ± 2.2 g
- Colon wet weight [1]: 269.0 ± 8.4
- Fecal scoring average value (DSS + 1 mg/kg/day oral, day 10, score 0-3, mean ± SD): 0.0 ± 0.0
- Colon length (DSS + 1 mg/kg/day oral, day 10 of administration, mean ± SD, 1 mg/kg/day): 6.72 cm and 6.72 ± 0.28 cm
- Body weight (DSS + 1 mg/kg/day oral, day −5 (DSS start, before test substance), C57BL/6J mice, mean ± SD): 20.3 ± 0.9 g
- Fecal scoring average value (DSS + 1 mg/kg/day oral, day −5 (before test substance), score 0-3 per Table 2, mean ± SD): 0.0 ± 0.0
- Body weight (DSS + 10 mg/kg/day oral, day 0 (DSS last day), mean ± SD): 18.9 ± 1.1 g
- Fecal scoring average value (DSS + 10 mg/kg/day oral, day 0 (DSS last day), score 0-3, mean ± SD): 1.2 ± 0.4
- Body weight (DSS + 10 mg/kg/day oral, day 3, mean ± SD): 14.9 ± 1.4 g
- Fecal scoring average value (DSS + 10 mg/kg/day oral, day 3, score 0-3, mean ± SD): 1.3 ± 0.5
- Body weight (DSS + 10 mg/kg/day oral, day 5, mean ± SD): 15.9 ± 1.9 g
- Fecal scoring average value (DSS + 10 mg/kg/day oral, day 5, score 0-3, mean ± SD): 1.7 ± 0.5
- Body weight (DSS + 10 mg/kg/day oral, day 8, mean ± SD): 18.5 ± 2.1 g
- Fecal scoring average value (DSS + 10 mg/kg/day oral, day 8, score 0-3, mean ± SD): 0.0 ± 0.0
- Body weight [2]: 19.8 ± 1.7 g
- Colon length [2]: 6.32 ± 0.16 cm
- Colon wet weight [2]: 255.0 ± 12.4
- Fecal scoring average value (DSS + 10 mg/kg/day oral, day 10, score 0-3, mean ± SD): 0.0 ± 0.0
- Body weight (DSS + 10 mg/kg/day oral, day −5 (DSS start, before test substance), mean ± SD): 20.1 ± 0.9 g
- Fecal scoring average value (DSS + 10 mg/kg/day oral, day −5 (before test substance), score 0-3, mean ± SD): 0.0 ± 0.0
- Body weight (DSS + 100 mg/kg/day oral, day 0 (DSS last day), mean ± SD): 19.0 ± 1.0 g
- Fecal scoring average value (DSS + 100 mg/kg/day oral, day 0 (DSS last day), score 0-3, mean ± SD): 1.0 ± 0.0
- Body weight (DSS + 100 mg/kg/day oral, day 3, mean ± SD): 15.2 ± 1.8 g
- Fecal scoring average value (DSS + 100 mg/kg/day oral, day 3, score 0-3, mean ± SD): 1.7 ± 0.8
- Body weight (DSS + 100 mg/kg/day oral, day 5, mean ± SD): 16.7 ± 2.2 g
- Fecal scoring average value (DSS + 100 mg/kg/day oral, day 5, score 0-3, mean ± SD): 1.0 ± 0.0
- Body weight (DSS + 100 mg/kg/day oral, day 8, mean ± SD): 19.8 ± 0.9 g
- Fecal scoring average value (DSS + 100 mg/kg/day oral, day 8, score 0-3, mean ± SD): 0.0 ± 0.0
- Colon wet weight (DSS + 100 mg/kg/day oral, day 10): 238.6
- Body weight [3]: 21.0 ± 0.7 g
- Colon wet weight [3]: 238.6 ± 11.3
- Colon length (DSS + 100 mg/kg/day oral, day 10, mean ± SD, 100 mg/kg/day): 6.80 cm and 6.80 ± 0.12 cm
- Fecal scoring average value (DSS + 100 mg/kg/day oral, day 10, score 0-3, mean ± SD): 0.0 ± 0.0
- Body weight (DSS + 100 mg/kg/day oral, day −5 (DSS start, before test substance), mean ± SD): 20.1 ± 0.9 g
- Fecal scoring average value (DSS + 100 mg/kg/day oral, day −5 (before test substance), score 0-3, mean ± SD): 0.0 ± 0.0
- Colon length compared with DSS group (Group Nos. 3 to 5 (1, 10, 100 mg/kg/day) and Group No. 6 (50 mg/kg/day), in words): longer length of the colon than DSS group
- Colon wet weight compared with DSS group (all treated groups of Table 5, in words): suppressed weight increases compared with DSS group

From patent publication US20210052537A1, “COLITIS AMELIORATING AGENT” (ASTA PHARMACEUTICALS, CO., LTD., priority 2018, published 2021)
